Reference: US7220824B1, “Integrin-mediated drug targeting” (Bayer Aktiengesellschaft, priority 2000, dated 2007)
Where two headings read alike, the source gives them in different places.

Tests used:
[1] = target: T1, αvβ3 receptor (αvβ3 from human A375 cells) (Homo sapiens, UniProt P05106+P06756); assay: αvβ3 binding test (echistatin displacement, WGA SPA beads)
T1 construct: αvβ3 from human A375 cells was purified analogously to a procedure which was described by Wong et al; endogenous in cells; host or cells: human A375 cells; the receptor was purified from the cells and used detergent-solubilised (n-octyl-glucopyranoside)
T1 sequence (P06756 31-889 limits assumed): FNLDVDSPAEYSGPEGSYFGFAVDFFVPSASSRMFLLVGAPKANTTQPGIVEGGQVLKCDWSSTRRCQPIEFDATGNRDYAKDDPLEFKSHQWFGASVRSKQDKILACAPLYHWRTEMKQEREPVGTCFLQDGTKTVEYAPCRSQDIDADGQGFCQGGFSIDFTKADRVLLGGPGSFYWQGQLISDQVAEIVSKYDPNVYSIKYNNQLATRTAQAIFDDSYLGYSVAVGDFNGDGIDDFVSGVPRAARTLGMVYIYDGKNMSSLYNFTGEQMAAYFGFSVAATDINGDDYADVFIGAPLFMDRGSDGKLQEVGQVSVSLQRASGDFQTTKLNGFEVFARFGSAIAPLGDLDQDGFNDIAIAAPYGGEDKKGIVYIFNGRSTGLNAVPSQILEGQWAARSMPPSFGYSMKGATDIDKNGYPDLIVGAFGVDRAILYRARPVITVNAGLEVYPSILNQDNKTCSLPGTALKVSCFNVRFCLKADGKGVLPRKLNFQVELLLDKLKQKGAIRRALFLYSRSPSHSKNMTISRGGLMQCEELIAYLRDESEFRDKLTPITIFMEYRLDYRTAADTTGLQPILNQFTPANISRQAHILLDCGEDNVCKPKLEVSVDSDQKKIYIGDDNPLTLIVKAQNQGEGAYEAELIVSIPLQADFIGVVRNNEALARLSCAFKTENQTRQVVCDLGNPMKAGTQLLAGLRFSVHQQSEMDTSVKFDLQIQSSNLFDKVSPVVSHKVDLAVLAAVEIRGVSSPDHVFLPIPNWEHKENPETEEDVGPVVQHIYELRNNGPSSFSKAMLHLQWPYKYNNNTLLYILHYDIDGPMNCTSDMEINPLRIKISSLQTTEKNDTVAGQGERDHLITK
T1 sequence (P06756 891-1048 partner limits assumed): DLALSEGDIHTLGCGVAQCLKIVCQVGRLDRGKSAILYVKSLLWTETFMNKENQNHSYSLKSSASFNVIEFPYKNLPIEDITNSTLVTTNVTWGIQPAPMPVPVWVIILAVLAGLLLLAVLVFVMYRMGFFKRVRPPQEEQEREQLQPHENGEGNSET
T1 sequence (P05106 27-788): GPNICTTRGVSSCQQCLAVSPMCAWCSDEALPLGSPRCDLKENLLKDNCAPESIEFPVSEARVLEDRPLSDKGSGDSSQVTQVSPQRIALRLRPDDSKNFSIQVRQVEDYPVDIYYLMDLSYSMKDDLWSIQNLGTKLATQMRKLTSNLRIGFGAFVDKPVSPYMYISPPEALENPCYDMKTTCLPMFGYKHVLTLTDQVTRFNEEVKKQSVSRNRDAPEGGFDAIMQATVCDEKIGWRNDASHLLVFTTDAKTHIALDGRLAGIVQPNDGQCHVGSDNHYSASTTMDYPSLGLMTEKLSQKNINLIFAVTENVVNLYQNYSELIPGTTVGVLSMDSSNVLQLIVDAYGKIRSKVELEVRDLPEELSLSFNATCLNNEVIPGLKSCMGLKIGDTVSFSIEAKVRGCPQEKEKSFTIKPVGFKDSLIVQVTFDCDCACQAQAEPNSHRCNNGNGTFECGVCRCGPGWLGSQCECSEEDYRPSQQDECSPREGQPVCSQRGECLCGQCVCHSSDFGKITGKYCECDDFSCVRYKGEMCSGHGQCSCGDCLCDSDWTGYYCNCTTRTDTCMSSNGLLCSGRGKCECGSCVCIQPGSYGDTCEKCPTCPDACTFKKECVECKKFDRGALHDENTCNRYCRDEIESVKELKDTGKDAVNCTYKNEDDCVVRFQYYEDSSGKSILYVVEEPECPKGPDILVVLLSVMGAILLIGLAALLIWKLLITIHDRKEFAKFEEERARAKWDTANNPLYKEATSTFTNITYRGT
Experimental: αvβ3 from human A375 cells was purified analogously to a procedure which was described by Wong et al. (Molecular Pharmacology, 50, 529–537 (1996)). In each case, 10 μl of αvβ3 (5 ng) in TBS pH 7.6, 2 mM CaCl2, 1 mM MgCl2, 1% n-octyl-glucopyranoside (Sigma); 10 μl of test substance in TBS pH 7.6, 0.1% DMSO and 45 μl of TBS pH 7.6, 2 mM CaCl2, 1 mM MgCl2, 1 mM MnCl2 were incubated at room temperature for 1 h. In each case, 25 μl of WGA SPA beads (Amersham, 4 mg/ml) and 10 μl of echistatin ([…], Amersham, chloramine-T labelled) were then added. After 16 hours at room temperature, the samples were measured in a scintillation measuring apparatus (Wallac 1450).

[2] = tested on: B16F10; assay: Growth inhibition test (MTT), cytotoxic action on tumour cell lines; assay type: cell-based; settings: Mus musculus, B16-F10, 144 h, read-out: IC50 values of the cytotoxic action on tumour cell lines, B16F10
Experimental: (§1) The human large intestine cell lines SW 480 and HT29 (ATCC No. CCL 228 and HTB38), the human breast cell lines MDA-MB 231, MCF-7 and BT20 (ATCC No. HTB-, 26, 22 and 23) and the mouse melanoma cell line B16F 10 (CRL 6475) were grown to confluence in Roux dishes in RPMI 1640 medium with addition of 10% FCS. They were then trypsinized and taken up in RPMI plus 10% FCS to a cell count of 50,000 cells or, for B16F10, 20,000 cells per ml. 100 μl of cell suspension/well were added to a 96 microwell plate and incubated at 37° C. for 1 day in a CO2 incubator. A further 100 μl of RPMI medium and 1 μl of DMSO were then added with the test substances. The growth was checked after day 6. For this, 25 μl of MTT solution (3-(4,5-dimethylthiazol-2-yl)-2,5-diphenyltetrazolium bromide) was added to each well at a starting concentration of 5 mg/ml of H2O. The plate was incubated at 37° C. for 5 hours in a CO2 incubator. The medium was then aspirated and 100 μl of i-propanol/well were added. After shaking with 100 μl of H2O for 30 min, the extinction was measured at 595-nm using a Multiplate Reader (BIO-RAD 3550-UV).
(§2) The cytostatic action is indicated in Table 2 as an IC50 value, in each case for the individual cell lines.

[3] = tested on: BT20; assay: as above; assay type: cell-based; settings: Homo sapiens, BT-20, 144 h, read-out: IC50 values of the cytotoxic action on tumour cell lines, BT20
Experimental: as §1, §2

[4] = tested on: HT 29; assay: as above; assay type: cell-based; settings: Homo sapiens, HT-29, 144 h, read-out: IC50 values of the cytotoxic action on tumour cell lines, HT 29
Experimental: as §1, §2

[5] = tested on: MCF7; assay: as above; assay type: cell-based; settings: Homo sapiens, MCF7, 144 h, read-out: IC50 values of the cytotoxic action on tumour cell lines, MCF7
Experimental: as §1, §2

[6] = tested on: MDA-MB 231; assay: as above; assay type: cell-based; settings: Homo sapiens, MDA-MB-231, 144 h, read-out: IC50 values of the cytotoxic action on tumour cell lines, MDA-MB 231
Experimental: as §1, §2

[7] = tested on: SW480; assay: as above; assay type: cell-based; settings: Homo sapiens, SW480, 144 h, read-out: IC50 values of the cytotoxic action on tumour cell lines, SW480
Experimental: as §1, §2

[8] = αvβ3 purified from human A375 cells, labelled echistatin, read-out: IC50 values of the binding to the αvβ3 receptor

**Q.** What does the source list for `CC[C@@]1(OC(=O)[C@@H](NC(=O)[C@H](Cc2cnc[nH]2)NC(=S)Nc2ccc(CC(NS(=O)(=O)c3cc(-c4cccc(NC(=O)Nc5nc6ccccc6[nH]5)c4)ccc3OC)C(=O)O)cc2)C(C)C)C(=O)OCc2c1cc1n(c2=O)Cc2cc3ccccc3nc2-1` (stereo partly drawn) [Example 3.7]?
**A.** IC50 [1]: 111 nM; IC50 [2]: 800 nM; IC50 [3]: 600 nM; IC50 [4]: 200 nM; IC50 [5]: 400 nM; IC50 [6]: 300 nM; IC50 [7]: 400 nM

**Q.** Which IC50 [1, 8] does the source give for `CCC1(OC(=O)[C@@H](NC(=O)Nc2cccc(-c3ccc(S(=O)(=O)NC(CC(=O)O)c4ccccc4)cc3)c2)C(C)C)C(=O)OCc2c1cc1n(c2=O)Cc2cc3ccccc3nc2-1` (stereo partly drawn) [Example 2.12] here?
**A.** Its IC50 is 127 nM.

**Q.** What about the IC50 [2] of the same compound?
**A.** Its IC50 is 20 nM.

**Q.** What about the IC50 [3] of the same compound?
**A.** Its IC50 is 8 nM.

**Q.** And the IC50 [4]?
**A.** Its IC50 is 9 nM.

**Q.** What about the IC50 [5] of the same compound?
**A.** The IC50 was 10 nM.

**Q.** What about the IC50 [6] of the same compound?
**A.** Its IC50 is 10 nM.

**Q.** What about the IC50 [7] of the same compound?
**A.** Its IC50 is 20 nM.

**Q.** With `CC[C@@]1(OC(=O)[C@@H](NC(=O)[C@H](Cc2cnc[nH]2)NC(=S)Nc2cccc(C(CC(=O)O)NS(=O)(=O)c3cccc(-c4cccc(NC(=O)Nc5nc6ccccc6[nH]5)c4)c3)c2)C(C)C)C(=O)OCc2c1cc1n(c2=O)Cc2cc3ccccc3nc2-1` (stereo partly drawn) [Example 3.6] as the compound, how does the IC50 [1] read?
**A.** The IC50 was 22 nM.

**Q.** And the IC50 [2]?
**A.** The IC50 was 2000 nM.

**Q.** What about the IC50 [3] of the same compound?
**A.** Its IC50 is 1000 nM.

**Q.** What about the IC50 [4] of the same compound?
**A.** Its IC50 is 300 nM.

**Q.** And the IC50 [5]?
**A.** Its IC50 is 400 nM.

**Q.** What about the IC50 [6] of the same compound?
**A.** The IC50 was 400 nM.

**Q.** What about the IC50 [7] of the same compound?
**A.** Its IC50 is 400 nM.

**Q.** With `CC[C@@]1(OC(=O)[C@@H](NC(=O)[C@H](CCCCN)NC(=S)Nc2cccc(C(=O)NCC(=O)NC(CC(=O)O)c3ccccc3)c2)C(C)C)C(=O)OCc2c1cc1n(c2=O)Cc2cc3ccccc3nc2-1` (stereo partly drawn) [Example 2.1] as the compound, how does the IC50 [1, 8] read?
**A.** Its IC50 is 1450 nM.

**Q.** What about the IC50 [2] of the same compound?
**A.** The IC50 was 400 nM.

**Q.** And the IC50 [3]?
**A.** The IC50 was 100 nM.

**Q.** What about the IC50 [4] of the same compound?
**A.** The IC50 was 90 nM.

**Q.** And the IC50 [5]?
**A.** Its IC50 is 70 nM.

**Q.** And the IC50 [6]?
**A.** The IC50 was 60 nM.

**Q.** And the IC50 [7]?
**A.** Its IC50 is 150 nM.

**Q.** What does the source list for `CC[C@@]1(OC(=O)C(NC(=O)C(Cc2cnc[nH]2)NC(=S)Nc2cccc(-c3ccc(C[C@H](NS(=O)(=O)CC45CCC(CC4=O)C5(C)C)C(=O)O)cc3)c2)C(C)C)C(=O)OCc2c1cc1n(c2=O)Cc2cc3ccccc3nc2-1` (stereo partly drawn) [Example 2.4]?
**A.** IC50 [1, 8]: 110 nM; IC50 [2]: 500 nM; IC50 [3]: 1500 nM; IC50 [4]: 300 nM; IC50 [5]: 800 nM; IC50 [6]: 400 nM; IC50 [7]: 400 nM

**Q.** Which results are given for `CC[C@@]1(OC(=O)[C@@H](NC(=O)C(Cc2c[nH]cn2)NC(=S)Nc2ccc(CC(NS(=O)(=O)c3ccc(-c4cccc(NC(=O)Nc5nc6ccccc6[nH]5)c4)cc3)C(=O)O)cc2)C(C)C)C(=O)OCc2c1cc1n(c2=O)Cc2cc3ccccc3nc2-1` (stereo partly drawn) [Example 3.11]?
**A.** IC50 [1]: 97 nM; IC50 [2]: 600 nM; IC50 [3]: 500 nM; IC50 [4]: 300 nM; IC50 [5]: 250 nM; IC50 [6]: 400 nM; IC50 [7]: 600 nM

**Q.** `CC[C@@]1(OC(=O)[C@@H](NC(=O)Nc2cccc(-c3ccc(C[C@H](NS(=O)(=O)CC45CCC(CC4=O)C5(C)C)C(=O)O)cc3)c2)C(C)C)C(=O)OCc2c1cc1n(c2=O)Cc2cc3ccccc3nc2-1` (stereo partly drawn) [Example 2.8] was tested. Which IC50 [1, 8] did it give?
**A.** The IC50 was 83 nM.

**Q.** What about the IC50 [2] of the same compound?
**A.** Its IC50 is 200 nM.

**Q.** And the IC50 [3]?
**A.** The IC50 was 9 nM.

**Q.** And the IC50 [4]?
**A.** Its IC50 is 10 nM.

**Q.** And the IC50 [5]?
**A.** Its IC50 is 10 nM.

**Q.** And the IC50 [6]?
**A.** Its IC50 is 15 nM.

**Q.** What about the IC50 [7] of the same compound?
**A.** The IC50 was 20 nM.

**Q.** `CCCNC(=O)Nc1cccc(S(=O)(=O)Nc2cccc(C(CC(=O)O)NS(=O)(=O)c3ccc(NC(=S)N[C@@H](Cc4c[nH]cn4)C(=O)N[C@H](C(=O)O[C@]4(CC)C(=O)OCc5c4cc4n(c5=O)Cc5cc6ccccc6nc5-4)C(C)C)cc3)c2)c1` (stereo partly drawn) [Example 3.12] was tested. Which IC50 [1] did it give?
**A.** Its IC50 is 390 nM.

**Q.** What about the IC50 [2] of the same compound?
**A.** The IC50 was 250 nM.

**Q.** And the IC50 [3]?
**A.** Its IC50 is 150 nM.

**Q.** What about the IC50 [4] of the same compound?
**A.** Its IC50 is 150 nM.

**Q.** And the IC50 [5]?
**A.** Its IC50 is 100 nM.

**Q.** What about the IC50 [6] of the same compound?
**A.** Its IC50 is 150 nM.

**Q.** What about the IC50 [7] of the same compound?
**A.** Its IC50 is 300 nM.

**Q.** With `CC[C@@]1(OC(=O)[C@@H](NC(=O)[C@H](CCCCNC(=O)OCC2c3ccccc3-c3ccccc32)NC(=O)Nc2cccc(-c3ccc(C[C@H](NS(=O)(=O)CC45CCC(CC4=O)C5(C)C)C(=O)O)cc3)c2)C(C)C)C(=O)OCc2c1cc1n(c2=O)Cc2cc3ccccc3nc2-1` (stereo partly drawn) [Example 2.6] as the compound, how does the IC50 [1] read?
**A.** Its IC50 is 239 nM.

**Q.** And the IC50 [2]?
**A.** Its IC50 is 10000 nM.

**Q.** And the IC50 [3]?
**A.** The IC50 was 9000 nM.

**Q.** And the IC50 [4]?
**A.** The IC50 was 3000 nM.

**Q.** And the IC50 [5]?
**A.** Its IC50 is 5000 nM.

**Q.** What about the IC50 [6] of the same compound?
**A.** Its IC50 is 3000 nM.

**Q.** And the IC50 [7]?
**A.** Its IC50 is 3000 nM.
